≈ marks a conversion by molar mass, not a printed value. Read-outs that look alike come from different tables or passages of the source.

As usually defined, the MIC99 is the lowest concentration that inhibits either 99% of growth or 99% of the strains tested, depending on the study.

The experiment relates to M. tuberculosis resistant isolates. In kind it is cell-based, Mycobacterium tuberculosis. The settings on record: solid medium 7H10 with 10% v/v OADC, 3–4 weeks.

As to `CC(C)CC1C(=O)N2NCCCC2C(=O)N2NCCCC2C(=O)N(C)C(Cc2ccccc2)C(=O)N2CCCC2C(=O)NC(C(C)C)C(=O)N1O` (stereo not drawn) [Compound 3], the MIC99 (strain LP-0458686-RM1) was 3.1 µM (≈ 2.2 µg/mL), the MIC99 (strain LP-0458686-RM2) came out at 3.1 µM (≈ 2.2 µg/mL) and the MIC99 (strain LP-0458686-RM3) amounted to 3.1 µM (≈ 2.2 µg/mL).
On to `CC(C)CC1C(=O)N2NCCCC2C(=O)N2NCCCC2C(=O)N(C)C(Cc2ccccc2)C(=O)N2CCCC2C(=O)NC(Cc2ccccc2)C(=O)N1O` (stereo not drawn) [Compound 1, cyclo[N-(Me)Phe-Pro-Phe-N-(OH)Leu-Piz-Piz]], for which the MIC99 runs as follows: (strain LP-0458690-RM1) 13 µM (≈ 9.87 µg/mL); (strain LP-0458690-RM2) 25 µM (≈ 19 µg/mL); (strain LP-0458690-RM3) 25 µM (≈ 19 µg/mL); (strain LP-0458690-RM4) 25 µM (≈ 19 µg/mL); (strain LP-0458690-RM5) 25 µM (≈ 19 µg/mL); (strain LP-0458690-RM6) 25 µM (≈ 19 µg/mL).

(Values after publication PMC6022709 (BMC Research Notes, 2018).)
